Drawing on patent publication US20240382494A1, “THERAPEUTIC COMPOUNDS” (priority 2023, published 2024), this text covers CC50 and IC50 for 25 compounds.

A short description of series [1]: Cytotoxicity assay in Vero E6 cells (neutral red uptake). Format: cell-based. The following applies: African green monkey; Vero E6 cells, 2 days at 37° C., neutral red uptake; read-out: Vero CC50. The protocol: Briefly, 80.000 cells/ml of the tested cell lines were dispensed into 96-well cell culture plates at 100 μl per well Twenty-four hours later, the growth medium was removed and washed with 150 μl of PBS buffer. Two hundred microliters of fresh serum-free medium containing serial diluted compounds was added to each well. After incubating for 2 days at 37° C., the medium was removed and replaced with 100 μl of DMEM medium containing neutral red (40 μg/ml) and incubated for 2 to 4 hours at 37° C. The amount of neutral red taken up was determined by measuring the absorbance at 540 nm using a Multiskan FC Microplate Photometer (Thermo Fisher Scientific) The CC50 values were calculated from best-fit dose-response curves with variable slope in Prism 8.

Series [2] has as its target SARS-CoV-2 PLpro (Severe acute respiratory syndrome coronavirus 2, UniProt P0DTD1). In words: FRET-based PLpro enzymatic assay. Format: biochemical. Conditions: 200 nM PLpro, 10 μM FRET substrate, 30 min preincubation at 30° C.; read-out: IC50. As for the experimental part:
The SARS-CoV-2 PL^pro enzymatic assays were carried out as follows. The assay was assembled in 96-well plates with 100 μl of 200 nM PL^Pro protein in PL^Pro reaction buffer [50 mM Hepes (pH 7.5), 0.01% Triton X-100, and 5 mM DTT]. Then, 1 μl of testing compound at various concentrations was added to each well and incubated at 30° C. for 30 minutes. The enzymatic reaction was initiated by adding 1 μl of 1 mM FRET substrate (the final substrate concentration is 10 μM). The reaction was monitored in a Cytation 5 image reader with filters for excitation at 360/40 nm and emission at 460/40 nm at 30° C. for 1 hour. The initial velocity of the enzymatic reaction with and without testing compounds was calculated by linear regression for the first 15 minutes of the kinetic progress curve. The IC50 values were calculated by plotting the initial velocity against various concentrations of testing compounds with a dose-response function in Prism 8 software.

A value given as a limit tells only on which side of the number the result lay.

`Cc1ccc(OCCN(C)C)cc1C(=O)N[C@H](C)c1cc(-c2ccnn2C)nc2ccccc12` [Example 13, (R)-5-(2-(dimethylamino)ethoxy)-2-methyl-N-(1-(2-(1-methyl-1H-pyrazol-5-yl)quinolin-4-yl)ethyl)benzamide]: the cytotoxic concentration (CC50) at 2 days in series [1] was 60 ± 8.43 µM. Moreover, the half-inhibitory concentration (IC50) in series [2] was under 0.5 µM.
Taken in the same sequence, the figures for `Cc1ccc(OCCN(C)C)cc1C(=O)N[C@H](C)c1cc(-c2cnn(C(C)C)c2)nc2ccccc12` [Example 14, (R)-5-(2-(dimethylamino)ethoxy)-N-(1-(2-(1-isopropyl-1H-pyrazol-4-yl)quinolin-4-yl)ethyl)-2-methylbenzamide] were 37.7 ± 5.87 µM and under 0.5 µM.
The corresponding values for `Cc1ccc(OCCN(C)C)cc1C(=O)N[C@H](C)c1cc(-c2ccn[nH]2)nc2ccccc12` [Example 15, (R)—N-(1-(2-(1H-pyrazol-5-yl)quinolin-4-yl)ethyl)-5-(2-(dimethylamino)ethoxy)-2-methylbenzamide] are 63.2 ± 9.51 µM and under 0.5 µM.
The corresponding values for `Cc1ccc(OCCN(C)C)cc1C(=O)N[C@H](C)c1cc(-c2ccc(CN3CCOCC3)s2)nc2ccccc12` [Example 16, (R)-5-(2-(dimethylamino)ethoxy)-2-methyl-N-(1-(2-(5-(morpholinomethyl)thiophen-2-yl)quinolin-4-yl)ethyl)benzamide] are 30.6 ± 10.6 µM and under 0.5 µM.
For the compound `Cc1ccc(OCCN(C)C)cc1C(=O)N[C@@H](C)c1cc(-c2cnn(C(F)F)c2)nc2ccccc12` [Example 18], the CC50 at 2 days in series [1] came to 47.1 ± 6.43 µM. The IC50 in series [2] lay in the range of 0.5 to 1 µM.
As for `COCCn1cc(-c2cc([C@H](C)NC(=O)c3cc(OCCN(C)C)ccc3C)c3ccccc3n2)cn1` [Example 19, (S)-5-(2-(dimethylamino)ethoxy)-N-(1-(2-(1-(2-methoxyethyl)-1H-pyrazol-4-yl)quinolin-4-yl)ethyl)-2-methylbenzamide], in series [1], the CC50 at 2 days is over 125 µM. Further, the IC50 in series [2] lay within 1 to 5 µM.
In the case of `Cc1ccc(OCCN(C)C)cc1C(=O)N[C@@H](C)c1cc(-c2cnn(C3CC3)c2)nc2ccccc12` [Example 20, (S)—N-(1-(2-(1-cyclopropyl-1H-pyrazol-4-yl)quinolin-4-yl)ethyl)-5-(2-(dimethylamino)ethoxy)-2-methylbenzamide], in series [1], the 50% cytotoxic concentration (CC50) at 2 days is 59.6 ± 8.56 µM. For the same compound, the half-maximal inhibitory concentration (IC50) in series [2] was under 0.5 µM.
With `Cc1ccc(OCCN(C)C)cc1C(=O)N[C@@H](C)c1cc(-c2ccnn2C)nc2ccccc12` [Example 21, (S)-5-(2-(dimethylamino)ethoxy)-2-methyl-N-(1-(2-(1-methyl-1H-pyrazol-5-yl)quinolin-4-yl)ethyl)benzamide], in series [1], the CC50 at 2 days was 64.7 ± 8.94 µM. Besides, the IC50 in series [2] fell in the range of 0.5 to 1 µM.
On to `Cc1ccc(OCCN(C)C)cc1C(=O)N[C@H](C)c1cc(-c2cnn(CCO)c2)nc2ccccc12` [Example 22, (R)-5-(2-(dimethylamino)ethoxy)-N-(1-(2-(1-(2-hydroxyethyl)-1H-pyrazol-4-yl)quinolin-4-yl)ethyl)-2-methylbenzamide], for which the half-maximal cytotoxic concentration (CC50) at 2 days in series [1] is 153 ± 43.9 µM. In addition, the IC50 in series [2] was under 0.5 µM.
Taken in the same sequence, the figures for `Cc1ccc(OCCN(C)C)cc1C(=O)N[C@H](C)c1cc(-c2cnn(CC(N)=O)c2)nc2ccccc12` [Example 24, (R)—N-(1-(2-(1-(2-amino-2-oxoethyl)-1H-pyrazol-4-yl)quinolin-4-yl)ethyl)-5-(2-(dimethylamino)ethoxy)-2-methylbenzamide] were over 250 µM and under 0.5 µM.
The corresponding values for `Cc1ccc(OCCN(C)C)cc1C(=O)N[C@H](C)c1cc(N2CCOCC2)nc2ccccc12` [Example 45, (R)-5-(2-(dimethylamino)ethoxy)-2-methyl-N-(1-(2-morpholinoquinoline-4-yl)ethyl)benzamide] are 166 ± 33.2 µM and 0.5 to 1 µM.
Turning to `Cc1ccc(OCCN(C)C)cc1C(=O)N[C@H](C)c1cc(-n2cncn2)nc2ccccc12` [Example 47, (R)—N-(1-(2-(1H-1,2,4-triazol-1-yl)quinoline 4-yl)ethyl)-5-(2-(dimethylamino)ethoxy)-2-methylbenzamide], the cytotoxic concentration (CC50) at 2 days in series [1] stood at 17.5 ± 5.23 µM. Also, in series [2], the IC50 lay in the range of 0.5 to 1 µM.
The corresponding values for `Cc1ccc(OCCN(C)C)cc1C(=O)N[C@H](C)c1cc(-c2ccc(N3CCN(C)CC3)s2)nc2ccccc12` [Example 48, (R)-5-(2-(dimethylamino)ethoxy)-2-methyl-N-(1-(2-(5-(4-methylpiperazin-1-yl)thiophen-2-yl)quinolin-4-yl)ethyl)benzamide] are 15.4 ± 7.94 µM and under 0.5 µM.
Taken in the same sequence, the figures for `Cc1ccc(OCCN(C)C)cc1C(=O)N[C@H](C)c1cc(-c2cccc3[nH]ncc23)nc2ccccc12` [Example 50, (R)—N-(1-(2-(1H-indazol-4-yl)quinolin-4-yl)ethyl)-5-(2-(dimethylamino)ethoxy)-2-methylbenzamide] were 59.5 ± 25.4 µM and under 0.5 µM.
The corresponding values for `Cc1ccc(OCCN(C)C)cc1C(=O)N[C@H](C)c1cc(-c2ccc(CN3CCCC3)s2)nc2ccccc12` [Example 51, (R)-5-(2-(dimethylamino)ethoxy)-2-methyl-N-(1-(2-(5-(pyrrolidin-1-ylmethyl)thiophen-2-yl)quinolin-4-yl)ethyl)benzamide] are 27.1 ± 14 µM and under 0.5 µM.
`Cc1ccc(OCCN(C)C)cc1C(=O)N[C@H](C)c1cc(-c2cnn(CC(=O)O)c2)nc2ccccc12` [Example 53, (R)-2-(4-(4-(1-(5-(2-(dimethylamino)ethoxy)-2-methylbenzamido)ethyl)quinolin-2-yl)-1H-pyrazol-1-yl)acetic acid]: the CC50 at 2 days in series [1] is over 250 µM. Besides, in series [2], the concentration for half-maximal inhibition (IC50) was under 0.5 µM.
`Cc1ccc(OCCN(C)C)cc1C(=O)N[C@H](C)c1cc(-c2cc[nH]c(=O)c2)nc2ccccc12` [Example 54, (R)-5-(2-(dimethylamino)ethoxy)-2-methyl-N-(1-(2-(2-oxo-1,2-dihydropyridin-4-yl)quinolin-4-yl)ethyl)benzamide]: the cytotoxic concentration (CC50) at 2 days in series [1] is over 125 µM. Moreover, the IC50 in series [2] was in the range of 0.5 to 1 µM.
Taken in the same sequence, the figures for `Cc1ccc(OCCN(C)C)cc1C(=O)N[C@H](C)c1cc(-c2ccc(CN)s2)nc2ccccc12` [Example 55, (R)—N-(1-(2-(5-(aminomethyl)thiophen-2-yl)quinolin-4-yl)-ethyl)-5-(2-(dimethylamino)ethoxy)-2-methylbenzamide] were 34.6 ± 8.18 µM and under 0.5 µM.
The corresponding values for `Cc1ccc(OCCN(C)C)cc1C(=O)N[C@H](C)c1cc(-c2ccc3c(c2)OC(F)(F)O3)nc2ccccc12` [Example 56, (R)—N-(1-(2-(2,2-difluorobenzo[d][1,3]dioxol-5-yl)quinolin-4-yl)ethyl)-5-(2-(dimethylamino)ethoxy)-2-methylbenzamid] are 15.2 ± 7.09 µM and under 0.5 µM.
Taken in the same sequence, the figures for `Cc1ccc(OCCN(C)C)cc1C(=O)N[C@H](C)c1cc(-c2cncnc2)nc2ccccc12` [Example 57, (R)-5-(2-(dimethylamino)ethoxy)-2-methyl-N-(1-(2-(pyrimidin-5-yl)quinolin-4-yl)ethyl)benzamide] were 74.6 ± 17.4 µM and 0.5 to 1 µM.
Take `Cc1ccc(OCCN(C)C)cc1C(=O)N[C@H](C)c1cc(OCc2c(F)c(F)c(F)c(F)c2F)nc2ccccc12` [Example 58, (R)-5-(2-(dimethylamino)ethoxy)-2-methyl-N-(1-(2-((perfluorophenyl)methoxy)quinolin-4-yl)ethyl)benzamide]: in series [1], the cytotoxic concentration (CC50) at 2 days is over 50 µM. Further, in series [2], the IC50 is over 5 µM.
Turning to `Cc1ccc(OCCN(C)C)cc1C(=O)N[C@H](C)c1cc(-c2cnn(CCC#N)c2)nc2ccccc12` [Example 59, (R)—N-(1-(2-(1-(2-cyanoethyl)-1H-pyrazol-4-yl)quinolin-4-yl)ethyl)-5-(2-(dimethylamino)ethoxy)-2-methylbenzamide], the 50% cytotoxic concentration (CC50) at 2 days in series [1] was 101 ± 15.2 µM. Moreover, in series [2], the half-maximal inhibitory concentration (IC50) was over 5 µM.
On to `Cc1ccc(OCCN(C)C)cc1C(=O)N[C@H](C)c1cc(-c2cnc3[nH]ccc3c2)nc2ccccc12` [Example 60, (R)—N-(1-(2-(1H-pyrrolo[2,3-b]pyridin-5-yl)-quinolin-4-yl)ethyl)-5-(2-(dimethylamino)ethoxy)-2-methylbenzamide], for which, in series [1], the 50% cytotoxic concentration (CC50) at 2 days is 25.8 ± 2.25 µM. For the same compound, the half-maximal inhibitory concentration (IC50) in series [2] is over 5 µM.
The corresponding values for `Cc1ccc(OCCN(C)C)cc1C(=O)N[C@H](C)c1cc(-c2ccc3cn[nH]c3c2)nc2ccccc12` [Example 61, (R)—N-(1-(2-(1H-indazol-6-yl)quinolin-4-yl)ethyl)-5-(2-(dimethylamino)ethoxy)-2-methylbenzamide] are 25.7 ± 2.09 µM and over 5 µM.
Taken in the same sequence, the figures for `Cc1ccc(OCCN(C)C)cc1C(=O)N[C@H](C)c1cc(-c2cnn(C(F)(F)F)c2)nc2ccccc12` [Example 63, (R)-5-(2-(dimethylamino)ethoxy)-2-methyl-N-(1-(2-(1-(trifluoro-methyl)-1H-pyrazol-4-yl)quinolin-4-yl)ethyl)benzamide] were 17.7 ± 2.04 µM and under 0.5 µM.
